Columns and labels:
[1] = system: arrhythmia induced by an intravenous administration of calcium chloride; experiment: Antiarrhythmic activity on a model of arrhythmia induced by intravenous calcium chloride (antagonism to calcium) in mice; format: in vivo; conditions: white mice, 20-40 minutes before
Description: The specific (antiarrhythmic) effect and acute toxicity were studied.
The antiarrhythmic activity of the compounds according to the present invention was studied on a model of arrhythmia induced by an intravenous administration of calcium chloride. In experiments on white mice of both sexes with a mass of 18-25 g narcotized by urethane (1,200 mg/kg intraperitoneally) ECG in the second standard lead was recorded. A 2% solution of calcium chloride was introduced into the tail vein at a constant rate (0.01 ml for 2 sec). The dose of calcium chloride causing arrhythmia and the dose causing the heart arrest were determined. In the test groups the test compounds were administered intraperitoneally 20-40 minutes before the beginning of the experiment.

in vivo = conditions: mouse, in vivo, ip
Description: (§1) The study of the effect provided by the compounds according to the present invention on the cardio-vascular system was carried out in experiments on white mice. The specific (antiarrhythmic) effect and acute toxicity were studied.
(§2) The acute toxicity of the compounds according to the present invention was determined in experiments on white mice with a mass of 20-25 g. The test compounds were administered intraperitoneally in the form of aqueous solutions or suspensions in Twin-80. Observation over the test animals was effected for 10 days.

white mice = experiment: in vivo
Description: as §1, §2

Compound: COC(=O)CCN(C(N)=O)N(C)C [I-1, 3-(2,2-Dimethyl-1-carbamoylhydrazino)-methylpropionate]
- Dose of calcium chloride causing arrythmia in animals under experiment ([1]; intraperitoneal dose 5 mg/kg): 118,5 mg/kg
- Dose of calcium chloride causing death in animals under experiment ([1]; intraperitoneal dose 5 mg/kg): 149,0 mg/kg
- Dose of calcium chloride causing arrythmia in animals under experiment ([1]; intraperitoneal dose 15 mg/kg): 124,4 mg/kg
- Dose of calcium chloride causing death in animals under experiment ([1]; intraperitoneal dose 15 mg/kg): 138,3 mg/kg
- LD50 at 240 h (in vivo): 2080 mg/kg
- Relative toxisity to quinidine (white mice; mouse, in vivo, ip, 14400 min): 13,3

Compound: CNC(=O)N(CCC(=O)OC)N(C)C [I-2, 3-(2,2-Dimethyl-1-methylcarbamoylhydrazino)-methylpropionate]
- Dose of calcium chloride causing arrythmia in animals under experiment ([1]; intraperitoneal dose 5 mg/kg): 112,0 mg/kg
- Dose of calcium chloride causing death in animals under experiment ([1]; intraperitoneal dose 5 mg/kg): 128,5 mg/kg
- Dose of calcium chloride causing arrythmia in animals under experiment ([1]; intraperitoneal dose 15 mg/kg): 124,5 mg/kg
- Dose of calcium chloride causing death in animals under experiment ([1]; intraperitoneal dose 15 mg/kg): 140,6 mg/kg
- LD50 at 240 h (in vivo): 2300 mg/kg
- Relative toxisity to quinidine (white mice; mouse, in vivo, ip, 14400 min): 14,7

Compound: COC(=O)CCN(C(=O)Nc1ccccc1)N(C)C [I-3, 3-(2,2-dimethyl-1-phenylcarbamoylhydrazino)-methylpropionate]
- Dose of calcium chloride causing arrythmia in animals under experiment ([1]; intraperitoneal dose 5 mg/kg): 86,7 mg/kg
- Dose of calcium chloride causing death in animals under experiment ([1]; intraperitoneal dose 5 mg/kg): 97,0 mg/kg
- Dose of calcium chloride causing arrythmia in animals under experiment ([1]; intraperitoneal dose 25 mg/kg): 124,7 mg/kg
- Dose of calcium chloride causing death in animals under experiment ([1]; intraperitoneal dose 25 mg/kg): 130,0 mg/kg
- LD50 at 240 h (in vivo): 1350 mg/kg
- Relative toxisity to quinidine (white mice; mouse, in vivo, ip, 14400 min): 8,6

Compound: COC(=O)CCN(C(=O)Nc1ccc(NC(=O)N(CCC(=O)OC)N(C)C)cc1)N(C)C [I-4, 3-(2,2-dimethyl-1-p-/2-dimethylamino-2-methylpropionato-2'-yl-ureido-1-yl/anilinocarbanylhydrazino)-methylpropionate]
- Dose of calcium chloride causing arrythmia in animals under experiment ([1]; intraperitoneal dose 5 mg/kg): 86,0 mg/kg
- Dose of calcium chloride causing death in animals under experiment ([1]; intraperitoneal dose 5 mg/kg): 110,0 mg/kg
- Dose of calcium chloride causing arrythmia in animals under experiment ([1]; intraperitoneal dose 25 mg/kg): 103,7 mg/kg
- Dose of calcium chloride causing death in animals under experiment ([1]; intraperitoneal dose 25 mg/kg): 115,0 mg/kg
- LD50 at 240 h (in vivo): 8000 mg/kg
- Relative toxisity to quinidine (white mice; mouse, in vivo, ip, 14400 min): 51,3

Compound: CNC(=S)N(CCC(=O)OC)N(C)C [I-5, 3-(2,2-dimethyl-1-methylthiocarbamoylhydrazino)methylpropionate]
- Dose of calcium chloride causing arrythmia in animals under experiment ([1]; intraperitoneal dose 5 mg/kg): 87,5 mg/kg
- Dose of calcium chloride causing death in animals under experiment ([1]; intraperitoneal dose 5 mg/kg): 100,5 mg/kg
- Dose of calcium chloride causing arrythmia in animals under experiment ([1]; intraperitoneal dose 25 mg/kg): 127,3 mg/kg
- Dose of calcium chloride causing death in animals under experiment ([1]; intraperitoneal dose 25 mg/kg): 131,4 mg/kg
- LD50 at 240 h (in vivo): 3950 mg/kg
- Relative toxisity to quinidine (white mice; mouse, in vivo, ip, 14400 min): 25,3

Compound: C=CCNC(=S)N(CCC(=O)OC)N(C)C [I-6, 3-(2,2-dimethyl-1-allylthiocarbamoylhydrazino)methylpropionate]
- Dose of calcium chloride causing arrythmia in animals under experiment ([1]; intraperitoneal dose 5 mg/kg): 97,9 mg/kg
- Dose of calcium chloride causing death in animals under experiment ([1]; intraperitoneal dose 5 mg/kg): 110,4 mg/kg
- Dose of calcium chloride causing arrythmia in animals under experiment ([1]; intraperitoneal dose 25 mg/kg): 100,9 mg/kg
- Dose of calcium chloride causing death in animals under experiment ([1]; intraperitoneal dose 25 mg/kg): 113,7 mg/kg
- LD50 at 240 h (in vivo): 3200 mg/kg
- Relative toxisity to quinidine (white mice; mouse, in vivo, ip, 14400 min): 20,5

Compound: COC(=O)CCN(C(=S)Nc1ccccc1)N(C)C [I-7, 3-(2,2-dimethyl-1-phenylthiocarbamoylhydrazino)methylpropionate]
- Dose of calcium chloride causing arrythmia in animals under experiment ([1]; intraperitoneal dose 5 mg/kg): 132 mg/kg
- Dose of calcium chloride causing death in animals under experiment ([1]; intraperitoneal dose 5 mg/kg): 135,6 mg/kg
- Dose of calcium chloride causing arrythmia in animals under experiment ([1]; intraperitoneal dose 15 mg/kg): 107,5 mg/kg
- Dose of calcium chloride causing death in animals under experiment ([1]; intraperitoneal dose 15 mg/kg): 138,0 mg/kg
- Dose of calcium chloride causing arrythmia in animals under experiment ([1]; intraperitoneal dose 25 mg/kg): 90,0 mg/kg
- Dose of calcium chloride causing death in animals under experiment ([1]; intraperitoneal dose 25 mg/kg): 113,0 mg/kg
- LD50 at 240 h (in vivo): 2100 mg/kg
- Relative toxisity to quinidine (white mice; mouse, in vivo, ip, 14400 min): 13,4

Compound: CCOC(=O)CCN(C(=O)NC)N(C)C [I-8, 3-(2,2-dimethyl-1-methylcarbamoylhydrazino)-ethylpropionate]
- Dose of calcium chloride causing arrythmia in animals under experiment ([1]; intraperitoneal dose 5 mg/kg): 99,4 mg/kg
- Dose of calcium chloride causing death in animals under experiment ([1]; intraperitoneal dose 5 mg/kg): 112,0 mg/kg
- Dose of calcium chloride causing arrythmia in animals under experiment ([1]; intraperitoneal dose 25 mg/kg): 123,2 mg/kg
- Dose of calcium chloride causing death in animals under experiment ([1]; intraperitoneal dose 25 mg/kg): 124,6 mg/kg
- LD50 at 240 h (in vivo): 1870 mg/kg
- Relative toxisity to quinidine (white mice; mouse, in vivo, ip, 14400 min): 11,9

Compound: C=CCNC(=S)N(CCC(=O)OCC)N(C)C [I-9, 3-(2,2-dimethyl-1-allylthiocarbamoylhydrazino)ethylpropionate]
- Dose of calcium chloride causing arrythmia in animals under experiment ([1]; intraperitoneal dose 5 mg/kg): 91,8 mg/kg
- Dose of calcium chloride causing death in animals under experiment ([1]; intraperitoneal dose 5 mg/kg): 107 mg/kg
- Dose of calcium chloride causing arrythmia in animals under experiment ([1]; intraperitoneal dose 25 mg/kg): 104,8 mg/kg
- Dose of calcium chloride causing death in animals under experiment ([1]; intraperitoneal dose 25 mg/kg): 116,5 mg/kg
- LD50 at 240 h (in vivo): 1780 mg/kg
- Relative toxisity to quinidine (white mice; mouse, in vivo, ip, 14400 min): 11,4

Compound: CCOC(=O)CCN(C(=S)Nc1ccccc1)N(C)C [I-10, 3-(2,2-dimethyl-1-phenylthiocarbamoylhydrazino)ethylpropionate]
- Dose of calcium chloride causing arrythmia in animals under experiment ([1]; intraperitoneal dose 5 mg/kg): 102,0 mg/kg
- Dose of calcium chloride causing death in animals under experiment ([1]; intraperitoneal dose 5 mg/kg): 108,8 mg/kg
- Dose of calcium chloride causing arrythmia in animals under experiment ([1]; intraperitoneal dose 15 mg/kg): 115,8 mg/kg
- Dose of calcium chloride causing death in animals under experiment ([1]; intraperitoneal dose 15 mg/kg): 125,7 mg/kg
- LD50 at 240 h (in vivo): 1800 mg/kg
- Relative toxisity to quinidine (white mice; mouse, in vivo, ip, 14400 min): 11,5

Compound: COC(=O)C(C)CN(C(N)=O)N(C)C (centres unmarked) [I-11, 3-(2,2-dimethyl-1-carbamoylhydrazino)-2-methyl-methylpropionate]
- Dose of calcium chloride causing arrythmia in animals under experiment ([1]; intraperitoneal dose 5 mg/kg): 100,3 mg/kg
- Dose of calcium chloride causing death in animals under experiment ([1]; intraperitoneal dose 5 mg/kg): 147 mg/kg
- Dose of calcium chloride causing arrythmia in animals under experiment ([1]; intraperitoneal dose 15 mg/kg): 130,7 mg/kg
- Dose of calcium chloride causing death in animals under experiment ([1]; intraperitoneal dose 15 mg/kg): 136,3 mg/kg
- LD50 at 240 h (in vivo): 1850 mg/kg
- Relative toxisity to quinidine (white mice; mouse, in vivo, ip, 14400 min): 11,8

Compound: CNC(=O)N(CC(C)C(=O)OC)N(C)C (centres unmarked) [I-12, 3-(2,2-dimethyl-1-methylcarbamoylhydrazino)-2-methyl-methylpropionate]
- Dose of calcium chloride causing arrythmia in animals under experiment ([1]; intraperitoneal dose 5 mg/kg): 106,0 mg/kg
- Dose of calcium chloride causing death in animals under experiment ([1]; intraperitoneal dose 5 mg/kg): 110,0 mg/kg
- Dose of calcium chloride causing arrythmia in animals under experiment ([1]; intraperitoneal dose 15 mg/kg): 128,3 mg/kg
- Dose of calcium chloride causing death in animals under experiment ([1]; intraperitoneal dose 15 mg/kg): 130,5 mg/kg
- LD50 at 240 h (in vivo): 1270 mg/kg
- Relative toxisity to quinidine (white mice; mouse, in vivo, ip, 14400 min): 8,1

Compound: C=CCNC(=S)N(CC(C)C(=O)OC)N(C)C (centres unmarked) [I-13]
- Dose of calcium chloride causing arrythmia in animals under experiment ([1]; intraperitoneal dose 5 mg/kg): 117,3 mg/kg
- Dose of calcium chloride causing death in animals under experiment ([1]; intraperitoneal dose 5 mg/kg): 136,5 mg/kg
- Dose of calcium chloride causing arrythmia in animals under experiment ([1]; intraperitoneal dose 15 mg/kg): 126,0 mg/kg
- Dose of calcium chloride causing death in animals under experiment ([1]; intraperitoneal dose 15 mg/kg): 138,0 mg/kg
- LD50 at 240 h (in vivo): 1230 mg/kg
- Relative toxisity to quinidine (white mice; mouse, in vivo, ip, 14400 min): 7,8

Compound: COC(=O)C(C)CN(C(=S)Nc1ccccc1)N(C)C (centres unmarked) [I-14]
- Dose of calcium chloride causing arrythmia in animals under experiment ([1]; intraperitoneal dose 5 mg/kg): 96,4 mg/kg
- Dose of calcium chloride causing death in animals under experiment ([1]; intraperitoneal dose 5 mg/kg): 114,1 mg/kg
- Dose of calcium chloride causing arrythmia in animals under experiment ([1]; intraperitoneal dose 15 mg/kg): 85 mg/kg
- Dose of calcium chloride causing death in animals under experiment ([1]; intraperitoneal dose 15 mg/kg): 101,0 mg/kg
- LD50 at 240 h (in vivo): 1960 mg/kg
- Relative toxisity to quinidine (white mice; mouse, in vivo, ip, 14400 min): 12,5

Compound: CNC(=O)N(CCC(N)=O)N(C)C [I-15, 3-(2,2-dimethyl-1-methylcarbamoylhydrazino)-propionamide]
- Dose of calcium chloride causing arrythmia in animals under experiment ([1]; intraperitoneal dose 5 mg/kg): 97,8 mg/kg
- Dose of calcium chloride causing death in animals under experiment ([1]; intraperitoneal dose 5 mg/kg): 109 mg/kg
- Dose of calcium chloride causing arrythmia in animals under experiment ([1]; intraperitoneal dose 15 mg/kg): 100,7 mg/kg
- Dose of calcium chloride causing death in animals under experiment ([1]; intraperitoneal dose 15 mg/kg): 108,5 mg/kg
- LD50 at 240 h (in vivo): 3600 mg/kg
- Relative toxisity to quinidine (white mice; mouse, in vivo, ip, 14400 min): 23

Compound: CN(C)N(CCC(N)=O)C(=O)Nc1ccccc1 [I-16, 3-(2,2-dimethylamino-1-phenylcarbamoylhydrazino)propionamide]
- Dose of calcium chloride causing arrythmia in animals under experiment ([1]; intraperitoneal dose 5 mg/kg): 92,0 mg/kg
- Dose of calcium chloride causing death in animals under experiment ([1]; intraperitoneal dose 5 mg/kg): 115,3 mg/kg
- Dose of calcium chloride causing arrythmia in animals under experiment ([1]; intraperitoneal dose 15 mg/kg): 102,5 mg/kg
- Dose of calcium chloride causing death in animals under experiment ([1]; intraperitoneal dose 15 mg/kg): 125,0 mg/kg
- LD50 at 240 h (in vivo): 925 mg/kg
- Relative toxisity to quinidine (white mice; white mice, intraperitoneal, relative to quinidine): 5,9
